Columns and labels:
[1] = tested on: MC38 cells; experiment: Anti-tumor vaccination study in C57BL/6 mice; format: in vivo, mouse
Experimental: FIG. 25A: C57Bl/6 mice were injected with either PBS or AP-4-139B pre-treated MC38 cells into the left flank. 10 days later, the same mice were injected with untreated MC38 cells in the right flank. […] Log rank test p<0.0001. FIG. 25B: Tumor growth measured in mice in FIG. 25A over 25 days. n=15 mice per group. Wilcox rank-sum test p<0.0001.
For in vivo metastasis assays, 8-10 week old male C57Bl/6 mice were injected with 4×10^5 MC38 cells. Mice were then treated with either vehicle or 10 mg/kg AP-4-139B every 48 hours for 3 weeks. At the end of the study, mice were euthanized, lungs were harvested and fixed in formalin for analysis of lung tumor nodules by H&E. For anti-tumor vaccination studies, MC38 cells were treated with 10 μM AP-4-139B for 48 h, resulting in approximately 20% cell death (as assessed by Trypan Blue staining). 2×10^6 pre-treated MC38 cells or PBS was inoculated subcutaneously into the left flank of 8-10 week old male C57BL/6 mice. Ten days later, mice were challenged on the right flank with 5×10^5 live MC38 cells, and tumor growth and incidence were monitored 3 times per week. The absence of tumors was scored as an indication for efficient antitumor vaccination.

[2] = molecular target: N-terminal HIS tagged HSP70 (Homo sapiens, UniProt P0DMV8); experiment: Small molecule binding to HSP70 using SPR (Biacore T200)
Experimental: SPR experiments were conducted using the Biacore T200. Approximately 20,000 RU of N-terminal HIS tagged HSP70 was immobilized on a multi-dentate NTA derivatized linear carboxylate sensor chip (NICH1500M, Xantec Bioanalytics). The running buffer was PBS containing 2 mM MgCl2, 0.05% Tween, and 5% DMSO. Test compounds were diluted at 20× final concentration in 100% DMSO and then diluted into running buffer without DMSO so that the DMSO concentrations in both the sample and the running buffer were similar. Flow rate was 30 μL/min, contact time for each sample concentration was 30 seconds, followed by a 60 second dissociation time. Data were analyzed using the Biacore evaluation software and the resulting sensograms exported and re-plotted in GraphPad Prism.
The next studies sought to determine whether AP-4-139B interacts directly with HSP70. To accomplish this, full-length His-tagged human HSP70 was used, and it was immobilized on a high affinity poly-Ni-NTA sensor chip for surface plasmon resonance experiments on a Biacore T200. This HSP70-loaded chip was incubated with AP-4-139B or the negative control VY-3-277. As a positive control the adenosine-derived HSP70 inhibitor Ver-155008 was used (Massey et al., Cancer Chemother Pharmacol. 2010 August; 66(3):535-45).

[3] = tested on: MC38 tumors; experiment: Syngeneic model of MC38 tumors in C57Bl/6 mice; format: in vivo, mouse; settings: 10 mg/kg every 48 hours
Experimental: FIGS. 5A-5F show AP-4-139B is efficacious against CRC in an immunocompetent model, and causes immune cell recruitment. FIGS. 5A-5B: Mouse CRC cell lines, MC38 (FIG. 5A) and CT26 (FIG. 5B), were plated at a density of 1,000 cells per well in 96-well plates. The next day, cells were treated with the indicated inhibitors for 72 hours. Cells were then subjected to the Alamar Blue cell viability assays. Shown are representative IC50 values of an average of six technical replicates and two biological replicates. FIG. 5C: Mouse CRC cell lines MC38 and CT26 were treated with 10 μM AP-4-139B for 24 or 48 hours and immunoblotted for HSP70, p53, AKT, Cleaved Lamin A (CLA), Cleaved Caspase 3, MRPS14, and GAPDH (loading control). The doublet detected for HSP70 is seen in other murine cell lines, and may represent a degradation product or post-translational modification. FIG. 5D: 1×10^6 MC38 cells were injected subcutaneously into the right flank of 6-8 week old male C57Bl/6 mice. Once tumors reached an approximate volume of 50 mm^3, mice were separated randomly into two groups: vehicle vs. AP-4-139B. Mice were treated with 10 mg/kg AP-4-139B every 48 hours. All mice were euthanized 20 days after the start of treatment. Tumor volumes were recorded using digital calipers and using the formula v=length×width^2×0.52. *** p<0.001. n=15 mice per group.
FIG. 5E: Immunohistochemistry (IHC) analysis of MC38 tumors treated with AP-4-139B. Shown are representative images (4-6 random fields of view per condition from four independent tumors) of CD8^+ T cells and Granzyme B (marker for activated immune cells). Respective IgG antibody was used as the negative control. Scale bars=100 μm. FIG. 5F: Quantification of FIG. 5E * p<0.05; ** p<0.01.
FIG. 9A: Body weights of mice injected with HT-29 tumor xenografts. Weights were measured at the start of the treatment to determine mouse toxicity. n.s. not significant, n=15 mice per group. FIG. 9B: Immunohistochemistry (IHC) analysis of MC38 tumors treated with AP-4-139B. Shown are representative images (4-6 random fields of view per condition from four independent tumors) of CD4^+ T cells. Respective IgG antibody was used as the negative control. Scale bars=100 μm. FIG. 9C: Quantification of FIG. 9B.
All studies were carried out in accordance with the recommendations in the Guide for the Care and Use of Laboratory Animals of the National Institutes of Health (NIH). All protocols were approved by The Wistar Institute Institutional Animal Care and Use Committee (IACUC). […] Tumor volumes were measured using digital calipers and tumor volume was calculated using the formula: volume=(length×width^2)×0.52. All mice were monitored daily for signs of pain or distress.

Sequence of N-terminal HIS tagged HSP70 (P0DMV8 whole entry): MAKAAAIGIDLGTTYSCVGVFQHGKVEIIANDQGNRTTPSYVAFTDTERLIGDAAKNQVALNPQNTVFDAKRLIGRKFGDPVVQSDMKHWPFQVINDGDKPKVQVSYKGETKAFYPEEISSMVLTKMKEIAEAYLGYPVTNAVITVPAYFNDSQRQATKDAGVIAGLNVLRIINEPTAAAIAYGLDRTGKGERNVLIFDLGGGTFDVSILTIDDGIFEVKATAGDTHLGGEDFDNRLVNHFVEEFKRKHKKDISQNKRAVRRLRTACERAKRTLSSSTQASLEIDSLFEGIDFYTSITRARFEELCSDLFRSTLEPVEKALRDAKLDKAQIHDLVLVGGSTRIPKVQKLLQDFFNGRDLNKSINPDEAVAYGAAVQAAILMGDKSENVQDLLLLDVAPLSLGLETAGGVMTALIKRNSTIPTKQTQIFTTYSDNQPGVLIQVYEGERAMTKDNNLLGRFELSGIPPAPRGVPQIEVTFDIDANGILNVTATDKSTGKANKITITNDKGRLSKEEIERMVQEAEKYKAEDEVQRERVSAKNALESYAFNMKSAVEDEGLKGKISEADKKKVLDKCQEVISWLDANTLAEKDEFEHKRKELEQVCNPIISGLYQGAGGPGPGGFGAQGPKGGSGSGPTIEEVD

c1ccc(-c2cn3nc(CCCCCC[P+](c4ccccc4)(c4ccccc4)c4ccccc4)sc3n2)cc1 [AP-4-139B, Triphenyl(6-(6-phenylimidazo[2,1-b][1,3,4]thiadiazol-2-yl)hexyl)phosphonium bromide]
tumor size in vaccine-treated mice ([1]; over 25 days): markedly reduced compared with control
mice that developed tumors on the right flank ([1]; vaccinated with pre-treated MC38 cells, control 15 of 15): 3 of 15
binding to sensor chips loaded with HSP70 [2]: reproducibly bound in concentration-dependent manner
CD4+ T cells in tumors (IHC) [3]: increase in CD4+ T cells
infiltrating CD8+ T cells in tumors (IHC) [3]: large percentage of infiltrating CD8^+ T cells
weight loss of mice during treatment [3]: no evidence of weight loss
efficacy in syngeneic MC38 tumors ([3]; p<0.001): significant efficacy as a single agent
